We go through 1 substance from patent US6265376A, “Insecticidal plectoxins from plectreurys tristis” (Novartis AG, priority 1995, dated 2001).

A value given as a limit tells only on which side of the number the result lay.

One assay has as its system H. virescens. In words: Injection of plectoxins into insect larvae (toxicity). It counts as in vivo, Heliothis virescens. On the procedure: (§1) Polypeptides isolated from or those showing substantial homology to those isolated from the venom of Plectreurys tristis are useful as insecticidal agents. In particular, they are useful insecticidal agents against insects of the order Lepidoptera, for example, Heliothis virescens, Autographa californica, and the insects of the genus Spodoptera. Both the purified plectoxin and viruses transformed to produce the plectoxin are assayed for bioactivity on larvae including: tobacco hornworms (Manduca sexta), tobacco budworms (Heliothis virescens) and beet armyworm (Spodoptera exizua).
(§2) Venom from P. tristis is obtained from Spider Pharm, Black Canyon City, Az. Crude venom (approximately 200 μl per injection) is fractionated by reversed-phase liquid chromatography (LC) using the following conditions: a Perkin Elmer Model 410 Bio solvent delivery system; 5 ml injection loop; Hewlett Packard Model 1040M diode array detector at 220 and 280 nm; Aquapore ODS column, 22×1 cm (Brownlee Labs, Santa Clara, Calif.); 4.5 ml/min; acetonitrile (MeCN) in a constant 0.1% trifluoroacetic acid, 0% MeCN for 5 min, then linear gradient of 0 to 60% MeCN over 55 min. Similar fractions from several runs are combined and portions are removed for bioassays. […]

The next assay has as its system insects. In words: Insect toxicity (paralysis and/or death of test larvae), general statements. As to conditions: injection of a number of different insects. It is filed as in vivo. On the procedure:
as §1

A further assay has as its system S. exigua. As to the kind of experiment: Injection of plectoxins into insect larvae (toxicity). It counts as in vivo, Spodoptera exigua. On the procedure: as §1
Various plectoxins isolated from venom are injected into three different insect larvae. […] ED50 is the dose which is effective to paralyze 50% of the larvae at one hour. Values with an asterisk denote duplicate analysis with samples from different milking lots.

For the next assay, the system named is M. sexta. The description is as above. It is filed as in vivo, Manduca sexta. On the procedure: as §1, §2
Where [1] appears, read: dose paralyzing 50% of larvae at one hour.
The mark [2] stands for this setting: lethal dose for 50% of treated larvae at 24 hours.

As for “Plt-VI (AVKCIGWQETCNGNLPCCNECVMCECNIMGQNCRCNHPKATNECES)”, the ED50 with H. virescens (setting [1]) stood at 0.21 µg/g; in the assay with S. exigua (setting [1]) it was 0.32 µg/g; in the assay with M. sexta (setting [1]), 0.10 µg/g. Further, the LD50 in the assay on H. virescens (setting [2]) was 1.2 µg/g; in the assay with S. exigua (setting [2]), > 10 µg/g; with M. sexta (setting [2]), 0.15 µg/g. The “paralytic activity upon injection” value with insects is recorded as “very high level of paralytic activity”.
